Some test systems named below: HT29 colon; EKVX NSCLC; SF-268 CNS; SF-295 CNS; HCC-2998 colon; M14 melanoma; SK-MEL-2 melanoma; NCI/ADR-RES ovarian; TK-10 renal; OVCAR-8 ovarian.
Test in all cases: growth of human tumour cells (NCI), 48 h

The text below walks through data of PubChem BioAssay (NCI).

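All cell lines were grown in 96-well plates and treated with compound for 48 hours. GI50: concentration for 50% inhibition of growth. TGI: concentration producing complete growth inhibition.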

As for `N#CSc1ncnc2nc[nH]c12`, the GI50 was 9.69 µM with HT29 colon; 41.8 µM with EKVX NSCLC; 4.24 µM with SF-268 CNS; 2.53 µM with SF-295 CNS; 3.9 µM in the experiment with HCC-2998 colon; 1.78 µM in the experiment on M14 melanoma. In addition, the GI50 in the experiment on SK-MEL-2 melanoma is 37.6 µM; with NCI/ADR-RES ovarian it was 5.68 µM; with TK-10 renal it was 4.17 µM; in the experiment on OVCAR-8 ovarian, 5.72 µM. The TGI in the experiment on HT29 colon is > 100 µM; in the experiment with EKVX NSCLC, > 100 µM; with SF-268 CNS it was > 41.1 µM; in the experiment on SF-295 CNS, > 72.6 µM; in the experiment on HCC-2998 colon it was > 100 µM; with M14 melanoma, > 100 µM. For the same molecule, the TGI in the experiment on SK-MEL-2 melanoma, with NCI/ADR-RES ovarian, in the experiment with TK-10 renal and in the experiment with OVCAR-8 ovarian was > 100 µM in each case.

As for `O=C(O)[C@@H]1C2CC([C@@H]1C(=O)O)[C@H](N1C(=O)CCC1=O)[C@@H]2Br` (stereo not given in full), the TGI with HT29 colon, with EKVX NSCLC, in the experiment on SF-268 CNS, with SF-295 CNS, with HCC-2998 colon and with M14 melanoma was > 100 µM each time. For the same molecule, the TGI in the experiment on SK-MEL-2 melanoma, with NCI/ADR-RES ovarian, with TK-10 renal and in the experiment with OVCAR-8 ovarian was > 100 µM in each case.

Consider `Nc1nc(/C=C\c2ccc([N+](=O)[O-])o2)nc(N2CCN(c3ccccc3)CC2)n1`, for which the GI50 in the experiment on HT29 colon was 13.7 µM; with EKVX NSCLC, 23.1 µM; with SF-268 CNS, 11.7 µM; with SF-295 CNS, 22.1 µM; in the experiment on HCC-2998 colon, 10.1 µM; in the experiment with M14 melanoma, 4.01 µM. Further, the GI50 was 9.91 µM with SK-MEL-2 melanoma, 19.2 µM with NCI/ADR-RES ovarian, 5.77 µM in the experiment on TK-10 renal and 25.8 µM in the experiment on OVCAR-8 ovarian. Besides, the TGI was 55.9 µM in the experiment on HT29 colon; > 100 µM in the experiment on EKVX NSCLC; > 100 µM with SF-268 CNS; 73.8 µM in the experiment with SF-295 CNS; 25.8 µM in the experiment on HCC-2998 colon; 26.7 µM in the experiment with M14 melanoma. Moreover, the TGI with SK-MEL-2 melanoma is > 100 µM; in the experiment on NCI/ADR-RES ovarian, 54.8 µM; with TK-10 renal it was 32 µM; in the experiment with OVCAR-8 ovarian, > 100 µM.

Turning to `CN(C)CCCNC(=O)c1cc(NC(=O)CCNS(=O)(=O)c2ccc3c(c2)C(=O)c2ccccc2C3=O)cn1C`, the GI50 in the experiment with HT29 colon, in the experiment with EKVX NSCLC, with SF-268 CNS, in the experiment on SF-295 CNS, in the experiment with HCC-2998 colon and in the experiment on M14 melanoma was > 100 µM each time. Moreover, the GI50 in the experiment with SK-MEL-2 melanoma, in the experiment with NCI/ADR-RES ovarian, with TK-10 renal and with OVCAR-8 ovarian was > 100 µM each time. Also, the TGI in the experiment with HT29 colon, in the experiment on EKVX NSCLC, in the experiment on SF-268 CNS, in the experiment on SF-295 CNS, in the experiment with HCC-2998 colon and in the experiment on M14 melanoma was > 100 µM in each case. Moreover, the TGI in the experiment on SK-MEL-2 melanoma, in the experiment with NCI/ADR-RES ovarian, in the experiment on TK-10 renal and with OVCAR-8 ovarian was > 100 µM in each case.

On to `CCc1c(C)[nH]c(/C=C2\N=C(c3ccc[nH]3)C=C2OC)c1C`, for which the GI50 was < 0.0376 µM in the experiment on HT29 colon; 0.707 µM in the experiment with EKVX NSCLC; 0.224 µM in the experiment on SF-268 CNS; 0.747 µM with SF-295 CNS; 0.451 µM in the experiment on HCC-2998 colon; 0.256 µM with M14 melanoma. The GI50 in the experiment on SK-MEL-2 melanoma is 0.234 µM; in the experiment with NCI/ADR-RES ovarian it was 0.17 µM; in the experiment with TK-10 renal, 0.276 µM; in the experiment with OVCAR-8 ovarian it was 0.232 µM. Moreover, the TGI in the experiment with HT29 colon came to 2.29 µM; with EKVX NSCLC, 9.93 µM; in the experiment on SF-268 CNS, 11.3 µM; in the experiment on SF-295 CNS, 3.03 µM; in the experiment with HCC-2998 colon it was 4.65 µM; in the experiment on M14 melanoma, 2.99 µM. Also, the TGI with SK-MEL-2 melanoma was 0.989 µM; in the experiment with NCI/ADR-RES ovarian, 6.42 µM; in the experiment on TK-10 renal it was 8.85 µM; in the experiment with OVCAR-8 ovarian, > 24.1 µM.

Consider `CC1(C)CCC2(C(=O)OC3OC(CO)C(O)C(O)C3O)CC[C@]3(C)C(=CCC4C5(C)CC[C@H](OC6OC(C(=O)O)C(O)C(O)C6O)C(C)(C)C5CCC43C)C2C1` (stereo not given in full), for which the GI50 was 2.07 µM with HT29 colon; 3.39 µM with EKVX NSCLC; 2.17 µM in the experiment with SF-268 CNS; 2.56 µM in the experiment on SF-295 CNS; 0.89 µM with HCC-2998 colon; 1.47 µM with M14 melanoma. Further, the GI50 in the experiment on SK-MEL-2 melanoma is 1.85 µM; with NCI/ADR-RES ovarian, > 50 µM; in the experiment with TK-10 renal, 1.85 µM; in the experiment with OVCAR-8 ovarian, 4.28 µM. The TGI in the experiment with HT29 colon was > 50 µM; in the experiment with EKVX NSCLC, 36.6 µM; with SF-268 CNS, 11.4 µM; with SF-295 CNS, > 50 µM; with HCC-2998 colon it was 1.64 µM; in the experiment on M14 melanoma it was 4.33 µM. Besides, the TGI in the experiment on SK-MEL-2 melanoma is 10.7 µM; with NCI/ADR-RES ovarian it was > 50 µM; with TK-10 renal, 10.3 µM; with OVCAR-8 ovarian, 18.1 µM.

Take `C=C(C)[C@@H]1CC[C@]2(C(=O)NCCCN)CC[C@]3(C)[C@H](CC[C@@H]4[C@@]5(C)CC[C@H](O)C(C)(C)[C@@H]5CC[C@]43C)[C@@H]12`: the GI50 in the experiment with HT29 colon is 6.95 µM; in the experiment on EKVX NSCLC, 23.3 µM; in the experiment on SF-268 CNS it was 23 µM; in the experiment on SF-295 CNS, 22.6 µM; in the experiment with HCC-2998 colon it was 21.4 µM; in the experiment with M14 melanoma it was 24.7 µM. Also, the GI50 was 27.3 µM in the experiment with SK-MEL-2 melanoma, 24.8 µM in the experiment on NCI/ADR-RES ovarian, 23.9 µM in the experiment with TK-10 renal and 27.7 µM in the experiment on OVCAR-8 ovarian. Further, the TGI was 38.4 µM in the experiment with HT29 colon; 76.1 µM in the experiment on EKVX NSCLC; 63.8 µM in the experiment with SF-268 CNS; 67.3 µM in the experiment on SF-295 CNS; 77.1 µM with HCC-2998 colon; > 100 µM in the experiment with M14 melanoma. For the same molecule, the TGI was 85.8 µM in the experiment with SK-MEL-2 melanoma, 81.2 µM in the experiment with NCI/ADR-RES ovarian, 60.4 µM with TK-10 renal and 87.7 µM in the experiment with OVCAR-8 ovarian.

`CCCN1C(=O)/C(=c2\sc3n(c2=O)C2C(NN=3)N(CC)C(=O)N2CC)c2ccccc21` (stereo not given): the GI50 with HT29 colon is 0.347 µM; in the experiment with EKVX NSCLC it was 0.729 µM; in the experiment with SF-268 CNS, 0.959 µM; in the experiment on SF-295 CNS it was 0.409 µM; in the experiment on HCC-2998 colon, 1.56 µM; in the experiment on M14 melanoma it was 0.413 µM. In addition, the GI50 in the experiment on SK-MEL-2 melanoma is 0.799 µM; in the experiment on NCI/ADR-RES ovarian, 0.366 µM; in the experiment with TK-10 renal it was 3.62 µM; with OVCAR-8 ovarian it was 0.688 µM. The TGI with HT29 colon was 12.2 µM; in the experiment on EKVX NSCLC it was > 57.2 µM; in the experiment with SF-268 CNS, 19 µM; in the experiment on SF-295 CNS it was 10.7 µM; with HCC-2998 colon, 19.6 µM; in the experiment with M14 melanoma it was 12.4 µM. The TGI in the experiment on SK-MEL-2 melanoma was 15.4 µM; in the experiment with NCI/ADR-RES ovarian, 10.9 µM; in the experiment with TK-10 renal, 22.3 µM; in the experiment with OVCAR-8 ovarian, 12.3 µM.
